According to US9609884B2, “Anti-fatigue agent” (Suntory Holdings Limited, priority 2007, dated 2017):

What was measured:
Format in all cases: in vivo
[1] = tested on: Sprague Dawley male rats under exercise stress; assay: Forced exercise test, sesamin given after treadmill exercise stress (recovery from fatigue); conditions: 180 mg/kg oral in olive oil after 3-hr treadmill exercise stress; versus control group under exercise stress
Procedure: The second thing to do is measure the motor activity in a forced exercise test. Rats administered with the test substance are forced to have exercise on a treadmill and, thereafter, the motor activity of the animal in the dark period is measured. Since this is an animal model for fatigue from exercise (physical fatigue), an increase in the motor activity as achieved by administering it with the test substance means the verification of resistance to fatigue.
The test sample used in Example 2 was the same sesamin as in Example 1.
Sprague Dawley male rats (6-week old) were acclimatized in a test environment for a week and the animals that had shown normal growth were subjected to the test. One day before the start of the test, the rats were divided into five groups each consisting of eight animals. On the day of the test, all animals were starved from the morning and one group of rats was assigned as a resting group that was not to be subjected to exercise stress. […] Thereafter, the animals were transferred to an automatograph (Supermex manufactured by MUROMACHI KIKAI CO., LTD.) and their motor activity in the dark period was measured.

[2] = tested on: Balb/c male mice kept under water immersion stress; assay: Measuring fatigue-causing substances (ketone bodies) in the blood of mice under water immersion stress; conditions: 50 mg/kg oral once a day for three days during water immersion; versus control group under water immersion stress (olive oil)
From the text: The third thing to do is measure the amount of fatigue-causing substances in the blood. This involves administering the test substance to check to see if it has an action for controlling an increase in the blood concentration of fatigue-causing substances under a physical or mental stress. Although no substances have been identified to be causative of fatigue, one class of candidates may be ketone bodies (collectively referring to acetoacetate, 3-hydroxybutyrate, and acetone). Ketone bodies are known to be metabolites that are produced when free fatty acids […] from the fat tissue on account of lowered glucose availability undergo β-oxidation. If the production of ketone bodies is enhanced beyond their utilization in the extrahepatic tissues, ketone bodies accumulate in the blood, leading to ketosis. Actoacetate and 3-hydroxybutyrate are moderately strong acids, so if ketone bodies accumulate in amounts exceeding the buffering action of the living body, the blood becomes acidic, causing a condition known as acidosis which, in turn, produces a feeling of weariness (Takanori Yamamoto, Igaku no ayumi (Progress in Medicine), Vol. 204, No. 5:325-329, 2003). […]
After three days, blood was drawn from each mouse and the ketone bodies in the serum were measured by the enzyme method with a biochemical automatic analyzer (Model 7070 of Hitachi, Ltd.)

[3] = tested on: Balb/c male mice kept under water immersion stress; assay: Water immersion sleep disturbed test (forced swimming under weight load); conditions: once a day for two days during water immersion, weight 8% of body weight
Procedure: The first thing to do is measure the swimming time in a water immersion sleep disturbed test. Mice that have been kept in an environment such as water immersion where they are unable to have a good sleep or take a rest position so they cannot have a physical or mental rest are forced to swim under a weight load and the time it takes for them to have their nose sunk in the water for a period of ten seconds or longer is measured to confirm the degree of their fatigue. Since this is an animal model for physical or mental fatigue, an extension of the swimming time as achieved by administering it with the test substance means the verification of resistance to fatigue, as exemplified by relief of physical and/or mental fatigue, maintenance of physical vigor in the tired model (increase in body strength), or improvement of stamina. A sesamin/episesamin mixture (sesamin:episesamin=1:1 in weight ratio) was used as a test sample. Effectiveness against fatigue was evaluated by the following partial modification of the method of Tanaka et al. (Neuroscience, Let. 352, 159-162, 2003). The test animals Balb/c male mice (8-week old) were divided into five groups, each consisting of 12 animals and having the same average body weight. Four of those five groups were water immersion groups, which were kept in breeding cages, not on paper chips but in tap water (23° C.) supplied to a depth of 7 mm, thereby disturbing sleep of the mice. […] After two days, each mouse was fitted with a weight at the tail which corresponded to 8% of its body weight, and was allowed to swim in a water tank of 18 cm^φ that was filled with water to a depth of 30 cm; the time it took for each mouse to have its nose sunk in water for a period of at least 10 seconds was measured. The mice in the groups kept under water immersion stress could swim for a shorter period than the mice in the normally kept group and the degree by which the shortening of the swimming time could be controlled in the sesamin administered groups was measured to evaluate the effectiveness of sesamin against fatigue. […]

[4] = tested on: Sprague Dawley male rats under exercise stress; assay: Forced exercise test, sesamin-mixed feed for a week before treadmill exercise stress (prevention of fatigue); conditions: versus exercise fatigue control group
Procedure: The second thing to do is measure the motor activity in a forced exercise test. Rats administered with the test substance are forced to have exercise on a treadmill and, thereafter, the motor activity of the animal in the dark period is measured. Since this is an animal model for fatigue from exercise (physical fatigue), an increase in the motor activity as achieved by administering it with the test substance means the verification of resistance to fatigue. The test sample used in Example 3 was the same sesamin as in Example 1. Sprague Dawley male rats (10-week old) were acclimatized in a test environment for a week and the animals that had shown normal growth were subjected to the test. The rats were divided into three groups each consisting of eight animals. Then, AI[…] was mixed with sesamin to give final concentrations of 0, 0.02, and 0.1% (w/w) to prepare feeds and the rats were let to ingest the respective feeds ad libitum for a week. Thereafter, all animals were given a 3-hr exercise stress by means of a treadmill-type forced walking apparatus (MK-680 manufactured by MUROMACHI KIKAI CO., LTD.) After the end of exercise stress application, the animals were transferred to an automatograph (Supermex manufactured by MUROMACHI KIKAI CO., LTD.) and their motor activity in the dark period was measured.

c1cc2c(cc1[C@H]1OC[C@H]3[C@@H]1CO[C@@H]3c1ccc3c(c1)OCO3)OCO2 [sesamin]
motor activity in the dark period [1]: an increase in the motor activity was confirmed
concentration of ketone bodies in the serum [2]: significant control of the increase in the concentration of ketone bodies
swimming time (control group kept under water immersion stress taken as 100%) ([3]; 12.5 mg/kg oral): 150%
swimming time (control group kept under water immersion stress taken as 100%) ([3]; 50 mg/kg oral): 300%
swimming time (control group kept under water immersion stress taken as 100%) ([3]; 200 mg/kg oral): 133%
motor (physical) activity in the dark period ([4]; mixed feed containing 0.02% (w/w) sesamin ad libitum for a week before 3-hr exercise stress): almost the same physical activity
motor (physical) activity in the dark period ([4]; mixed feed containing 0.1% (w/w) sesamin (about 80 mg/kg) ad libitum for a week before 3-hr exercise stress): enhanced physical activity
